Laboratory results as given in ChEMBL document CHEMBL4732046, “A red-light-activated sulfonamide porphycene for highly efficient photodynamic therapy against hypoxic tumor” (Eur J Med Chem, 2021).
Calls of active or inactive are those of the source. No cut-off for these calls is given here.

Tests used:
[1] = test system: B16; test: Induction of intracellular reactive oxygen species production in mouse B16 cells irradiated with 640 +/- 15 nm red LED for 1 hrs measured after 4 hrs by DCFH-DA probe based flow cytometry; assay type: functional, cell-based; conditions: dose nM <=400, time 4.0 hrs
[2] = test system: A-375; test: Antitumor activity against human A-375 cells xenografted in BALB/c mouse assessed as tumor growth inhibition by measuring nuclear pyknosis treated at high dose intratumorally once every 2 days for 2 weeks followed every dosing irradiated with 640 +/- 15 nm red LED for 4 hrs measured after 14 days treatment; assay type: functional, cell-based; conditions: time 14.0 day
[3] = test system: B16; test: Antitumor activity against mouse B16 cells xenografted in C57BL/6J mouse assessed as tumor growth inhibition at high dose intratumorally once every 2 days for 2 weeks followed every dosing irradiated with 640 +/- 15 nm red LED for 4 hrs measured after 14 days treatment; assay type: functional, cell-based; conditions: time 14.0 day
[4] = test system: A-375; test: Induction of mitochondrial membrane potential disruption in human A-375 cells assessed as reduction in red fluorescence upto 300 nM irradiated with 640 +/- 15 nm red LED for 1 hrs measured after 24 hrs by JC1 staining based fluorescence microscopy; assay type: functional, cell-based; conditions: dose nM <=300, time 24.0 hrs
[5] = test system: B16; test: Induction of apoptosis in mouse B16 cells assessed as increase in Bad level at 200 to 400 nM irradiated with 640 +/- 15 nm red LED for 1 hrs measured after 24 hrs by Western blot analysis; assay type: functional, cell-based; conditions: dose 200-400 nM
[6] = Toxicity in C57BL/6 mouse model assessed as effect on lungs treated intratumorally once every 2 days for 2 weeks followed every dosing irradiated with 640 +/- 15 nm red LED for 4 hrs measured upto 28 days by H and E staining dependent light microscopy based histopathological analysis; conditions: in vivo, other, time <=28 day
[7] = test system: B16; test: Induction of apoptosis in mouse B16 cells assessed as decrease in Bid level at 200 to 400 nM irradiated with 640 +/- 15 nm red LED for 1 hrs measured after 24 hrs by Western blot analysis; assay type: functional, cell-based; conditions: dose 200-400 nM
[8] = test system: A-375; test: Antiproliferative activity against human A-375 cells assessed as inhibition of cell proliferation irradiated with 640 +/- 15 nm red LED for 4 hrs in presence of 30 uM D-mannitol measured after 24 hrs under hypoxic condition by MTT assay; assay type: functional, cell-based
[9] = test system: B16; test: Induction of apoptosis in mouse B16 cells assessed as increase in Bax level at 200 to 400 nM irradiated with 640 +/- 15 nm red LED for 1 hrs measured after 24 hrs by Western blot analysis; assay type: functional, cell-based; conditions: dose 200-400 nM
[10] = Drug uptake in human A-375 cells lysosome after 24 hrs by Lyso-Tracker Red dye based confocal microscopic method; assay type: ADME, subcellular; conditions: a-375, 24 h
[11] = Toxicity in C57BL/6 mouse model assessed as effect on heart treated intratumorally once every 2 days for 2 weeks followed every dosing irradiated with 640 +/- 15 nm red LED for 4 hrs measured upto 28 days by H and E staining dependent light microscopy based histopathological analysis; assay type: tissue-based; conditions: in vivo, other, time <=28 day
[12] = test system: A-375; test: Antiproliferative activity against human A-375 cells assessed as inhibition of cell proliferation irradiated with 640 +/- 15 nm red LED for 4 hrs in presence of 30 uM D-mannitol measured after 24 hrs by MTT assay; assay type: functional, cell-based
[13] = test system: B16; test: Photocytotoxicity against mouse B16 cells assessed as reduction in cell viability irradiated with 640 +/- 15 nm red LED for 4 hrs measured after 24 hrs under hypoxic condition by MTT assay; assay type: functional, cell-based; conditions: B16, light or radiation study
[14] = test system: B16; test: Antiproliferative activity against mouse B16 cells assessed as inhibition of cell proliferation irradiated with 640 +/- 15 nm red LED for 4 hrs in presence of 30 uM L-histidine measured after 24 hrs under hypoxic condition by MTT assay; assay type: functional, cell-based
[15] = test system: B16; test: Induction of apoptosis in mouse B16 cells assessed as decrease in Bcl2 level at 200 to 400 nM irradiated with 640 +/- 15 nm red LED for 1 hrs measured after 24 hrs by Western blot analysis; assay type: functional, cell-based; conditions: dose 200-400 nM
[16] = test system: A-375; test: Induction of apoptosis in human A-375 cells assessed as decrease in Bid level at 100 to 300 nM irradiated with 640 +/- 15 nm red LED for 1 hrs measured after 24 hrs by Western blot analysis; assay type: functional, cell-based; conditions: dose 100-300 nM
[17] = Toxicity in C57BL/6 mouse model assessed as effect on kidney treated intratumorally once every 2 days for 2 weeks followed every dosing irradiated with 640 +/- 15 nm red LED for 4 hrs measured upto 28 days by H and E staining dependent light microscopy based histopathological analysis; assay type: tissue-based; conditions: in vivo, other, time <=28 day
[18] = Toxicity in C57BL/6 mouse assessed as effect on alanine aminotransferase level measured after 2 days; conditions: in vivo, 48 h, time 2 day
[19] = test system: B16; test: Induction of morphological changes in mouse B16 cells assessed as chromatin condensation at 200 to 400 nM incubated for 24 hrs by Hoechst 33258 staining based assay; assay type: functional, cell-based; conditions: dose 200-400 nM
[20] = Toxicity in C57BL/6 mouse model assessed as change in platelet count measured after 14 days; conditions: 336 h, time 14 day
[21] = Toxicity in C57BL/6 mouse assessed as effect on aspartate aminotransferase level measured after 7 days; conditions: in vivo, 168 h, time 7 day
[22] = test system: A-375; test: Induction of intracellular reactive oxygen species production in human A-375 cells irradiated with 640 +/- 15 nm red LED for 1 hrs measured after 4 hrs by DCFH-DA probe based flow cytometry; assay type: functional, cell-based; conditions: dose nM <=300, time 4.0 hrs
[23] = Toxicity in C57BL/6 mouse xenografted with mouse B16 cells assessed as body weight at high dose intratumorally once every 2 days for 2 weeks followed every dosing irradiated with 640 +/- 15 nm red LED for 4 hrs measured after 14 days treatment; conditions: in vivo, other, 336 h, time 14 day
[24] = test system: HeLa; test: Photocytotoxicity against human HeLa cells assessed as reduction in cell viability irradiated with 640 +/- 15 nm red LED for 4 hrs measured after 24 hrs under hypoxic condition by MTT assay; assay type: functional, cell-based; conditions: light or radiation study
[25] = test system: A-375; test: Induction of apoptosis in human A-375 cells assessed as decrease in Bcl2 level at 100 to 300 nM irradiated with 640 +/- 15 nm red LED for 1 hrs measured after 24 hrs by Western blot analysis; assay type: functional, cell-based; conditions: dose 100-300 nM
[26] = test system: B16; test: Antitumor activity against mouse B16 cells xenografted in C57BL/6J mouse assessed as reduction in tumor volume at high dose intratumorally once every 2 days for 2 weeks followed every dosing irradiated with 640 +/- 15 nm red LED for 4 hrs measured after 14 days treatment; assay type: functional, cell-based; conditions: time 14.0 day
[27] = test system: A-375; test: Induction of apoptosis in human A-375 cells assessed as apoptotic cells at 100 nM irradiated with 640 +/- 15 nm red LED for 1 hrs after 24 hrs by Annexin V-FITC/propidium iodide staining based flow cytometric analysis relative to control; assay type: functional, cell-based
[28] = Drug uptake in mouse B16 cells incubated for 24 hrs in presence of 2-deoxyglucose and sodium azide by mito-tracker green based confocal microscopic method; assay type: ADME, cell-based; conditions: b16, 24 h
[29] = test system: A-375; test: Induction of apoptosis in human A-375 cells assessed as increase in Bax level at 100 to 300 nM irradiated with 640 +/- 15 nm red LED for 1 hrs measured after 24 hrs by Western blot analysis; assay type: functional, cell-based; conditions: dose 100-300 nM
[30] = Toxicity in BALB/c mouse xenografted with human A-375 cells assessed as body weight at 50 uM, IT once every 2 days for 2 weeks followed every dosing irradiated with 640 +/- 15 nm red LED for 4 hrs; conditions: in vivo, other, 336 h

## CC(C)(C)C1=Cc2nc1ccc1[nH]c(cc1S(=O)(=O)NCCOCCO)c1nc(ccc3[nH]c2cc3C(C)(C)C)C(C(C)(C)C)=C1
[1]
  Activity: Dose-dependent effect
[2]
  Activity: Active
[3]
  Activity: Active
[4]
  Activity: Active
[5]
  Activity: Active
[6]
  Activity: Non-Toxic
[7]
  Activity: Active
[8]
  Activity: inactive
[9]
  Activity: Active
[10]
  Drug uptake: Active
[11]
  Activity: Non-Toxic
[12]
  Activity: inactive
[13]
  DC50: 360 nM
[14]
  Activity: Active
[15]
  Activity: Active
[16]
  Activity: Active
[17]
  Activity: Non-Toxic
[18]
  Activity: Toxic
[19]
  Activity: Active
[20]
  Activity: Non-Toxic
[21]
  Activity: Toxic
[22]
  Activity: Dose-dependent effect
[23]
  Activity: Non-Toxic
[24]
  DC50: 49 nM
[25]
  Activity: Active
[26]
  Activity: Active
[27]
  Activity: Active
[28]
  Drug uptake: Not Active
[29]
  Activity: Active
[30]
  Activity: Non-Toxic
